This is an account of results in PubChem BioAssay (NCI).

Common to all, as to experiment: NCI-60 cell line screen, 48 h
For assay [1], the system named is A498 renal.
Assay [2] relates to CCRF-CEM leukemia.
For assay [3], the system named is HOP-62 NSCLC.
For assay [4], the system named is IGROV1 ovarian.
For assay [5], the system named is MOLT-4 leukemia.
In assay [6] the test system is SK-MEL-5 melanoma.
For assay [7], the system named is TK-10 renal.
In assay [8] the test system is UO-31 renal.
The subject of assay [9] is NCI/ADR-RES ovarian.
The test system of assay [10] is MDA-MB-231 breast.

The structures appear in SMILES notation. Values joined by “and” are separate entries in the source; they are usually repeats but may differ in a detail not shown here. Equal entries are not always repeated.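 Compound exposure: 48 hours, 5 concentrations, 96-well plates. GI50 is the concentration that inhibits growth by half. TGI denotes the concentration required for complete inhibition of growth.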 Numbered stars: 1 amine (or outer) side, 2 acyl side, 3 side chain; on linkers, the order of the positions; unused ones are H or OH. Bridge positions count the residues as written; N and C are the ends. Square brackets hold non-standard residues; d marks the D form. Peptide text beside a SMILES is read from it. I, II: the chains in the order shown. Actinocin(1to9) = Cc1c2oc3c(C)ccc(C(=O)[*:2])c3nc-2c(C(=O)[*:1])c(N)c1=O; NMeY = CN[CH](Cc1ccc(O)cc1)C(=O)O; Sar = CNCC(=O)O

Regarding `C=C1C[C@@H]2C[C@@H](C)CC(O)[C@]2(CCCN)C1O` (stereo partly specified), the TGI in [1], in [2], in assay [3], in assay [4], in [5] and in assay [6] was over 100 µM throughout. Besides, the TGI in [7] and in [8] was over 100 µM throughout.
Regarding `COc1ccc(OC(C)C(=O)O)c2c(=O)ccccc12` (stereo unspecified), the TGI in assay [1], in [2], in [3], in [4], in assay [5] and in [6] was over 100 µM in each case. For the same compound, the TGI in assay [7] and in [8] was over 100 µM throughout.
Consider `COc1ccc([C@@H]2OC(=O)C3C2C(=O)O[C@H]3c2ccc(OC)c(OC)c2)cc1OC` (stereo partly specified), for which the TGI in assay [1], in [2], in [3], in assay [4], in [5] and in assay [6] was over 100 µM in each case. Further, the TGI in [7] and in assay [8] was over 100 µM throughout.
Take `COc1cc(/C=N/N=C(\N)NO)c([N+](=O)[O-])cc1OC`: the TGI is over 100 µM in assay [1]; over 100 µM in [2]; over 100 µM in [3]; over 100 µM in assay [4]; over 100 µM in assay [5]; 50.9 µM in assay [6]. The TGI in [7] and in assay [8] was over 100 µM in each case.
Consider `NC(=O)c1ccc(Cl)c([N+](=O)[O-])c1`, for which the TGI in assay [1], in [2], in [3], in assay [4], in assay [5] and in assay [6] was over 100 µM in each case. Besides, the TGI in assay [7] and in assay [8] was over 100 µM throughout.
`COC(=O)C1CCc2nnc(-c3ccccc3)n21` (stereo unspecified): the TGI in assay [1], in assay [2], in assay [3], in assay [4], in [5] and in assay [6] was over 100 µM throughout. Further, the TGI in assay [7] and in assay [8] was over 100 µM throughout.
Consider `COc1ccc(CC2C(=O)OC(C)C(NC(=O)c3c4nc5c(C(=O)NC6C(=O)NC(C(C)C)C(=O)N7CCCC7C(=O)N(C)CC(=O)N(C)C(Cc7ccc(OC)cc7)C(=O)OC6C)ccc(C)c5oc-4c(C)c(=O)c3N)C(=O)NC(C(C)C)C(=O)N3CCCC3C(=O)N(C)CC(=O)N2C)cc1` (stereo unspecified) (I: TVP[Sar][NMeY](Me) / II: TVP[Sar][NMeY](Me); ester I:1-I:C, II:1-II:C; linker I:N-II:N via Actinocin(1to9); configuration not given here), for which the GI50 in assay [2] is < 0.01 µM and 0.00103 µM; in [4], < 0.01 µM and 0.00327 µM; in [5], 0.00152 µM; in assay [9] it was 0.0901 µM and > 0.863 µM. Further, the TGI in assay [2] was < 0.01 µM and 0.0625 µM; in assay [9] it was 11.5 µM and > 1 µM; in assay [7] it was 2.69 µM and 0.969 µM.
Take `CC(=O)[O-].N.N.N.N.[Co+3].[O-][Cl+3]([O-])([O-])[O-].[OH3+]`: the GI50 in assay [1], in assay [2], in assay [3], in assay [4], in [5] and in assay [6] was over 100 µM in each case. The GI50 in assay [7] was over 100 µM; in assay [8], 84.6 µM. Further, the TGI in assay [1], in [2], in assay [3], in assay [4], in [5] and in assay [6] was over 100 µM in each case. For the same compound, the TGI in [7] and in assay [8] was over 100 µM throughout.
In the case of `C[CH2][Sn]([CH2]C)([O]C(=O)c1ccc(F)cc1)[O]C(=O)c1ccc(F)cc1`, the GI50 in assay [1] is 16.8 µM; in assay [2], 8.75 µM; in assay [3], 62.6 µM; in assay [4] it was over 80.5 µM; in assay [5], 26.7 µM; in [6], 39.6 µM. The GI50 is 17.8 µM in [7] and 32.8 µM in [8]. Besides, the TGI is 36.3 µM in assay [1]; 31.4 µM in assay [2]; over 100 µM in assay [3]; over 100 µM in assay [4]; over 85.1 µM in assay [5]; over 100 µM in assay [6]. Further, the TGI is 32.4 µM in assay [7] and over 56.3 µM in [8].
As to `C=C1C(OC(C)=O)CC(OC(C)=O)C2(C)C(OC(C)=O)C(OC(C)=O)C3=C(C)C(OC(=O)/C=C/c4ccccc4)CC(C(OC(C)=O)C12)C3(C)C` (stereo unspecified), the TGI in assay [1], in [2], in assay [3], in assay [4], in assay [5] and in assay [6] was over 100 µM in each case. The TGI in assay [7] and in assay [8] was over 100 µM throughout.
As to `c1ccc(OC2=NC3=S(S2)SC(Oc2ccccc2)=N3)cc1`, the TGI in [1] worked out at 75 µM; in [2], 28.9 µM; in assay [3], 67.1 µM; in [4], 44.7 µM; in assay [5], 31 µM; in [6], 36.3 µM. For the same compound, the TGI in assay [7] stood at 33 µM; in assay [8], 36.3 µM.
Regarding `COC(=O)N/N=C(\C)CC(=O)Nc1ccc(Cl)cc1`, the TGI in assay [1], in [2], in assay [3], in [4], in assay [5] and in [6] was over 100 µM each time. The TGI in assay [7] and in assay [8] was over 100 µM throughout.
Regarding `CC(=O)Oc1ccc2c(c1)C(=O)c1nc(C)c(C)nc1C2=O`, the TGI in [1] was over 91.7 µM; in [2], over 100 µM; in assay [3], over 100 µM; in assay [4], over 100 µM; in assay [5] it was over 100 µM; in [6], 30.1 µM. For the same compound, the TGI in assay [7] and in [8] was over 100 µM in each case.
For `CC(=O)NN1C(=O)C(Cc2ccccc2)c2ccccc21` (stereo unspecified), the TGI in [1], in assay [2], in [3], in assay [4], in assay [5] and in [6] was over 100 µM each time. For the same compound, the TGI in [7] and in assay [8] was over 100 µM in each case.
In the case of `O=C([O-])CC(=O)[O-].[NH-][C@@H]1CCCC[C@H]1[NH-].[Pt+4]`, the GI50 in assay [1] is 20.7 µM; in assay [2], 4.32 µM; in assay [3] it was over 27.1 µM; in assay [4], 33.5 µM; in [10], over 100 µM; in [5], 1.29 µM. Also, the results for the GI50 in [6], in assay [7] and in assay [8] were 16.9 µM, over 100 µM and 18.9 µM, respectively. The TGI in assay [1] was over 81.5 µM; in assay [2] it was over 100 µM; in [3], over 100 µM; in [4], over 100 µM; in assay [10], over 100 µM; in assay [5], 61.4 µM. The TGI in assay [6], in assay [7] and in [8] was over 100 µM each time.
For `CC(=O)[CH-]C(=O)c1ccccc1.CC(=O)[CH-]C(=O)c1ccccc1.[O-]c1ccc2c(c1)OCO2.[O-]c1ccc2c(c1)OCO2.[Ti+4]`, the GI50 was 32.7 µM in assay [1]; 3.66 µM in assay [2]; 20.4 µM in assay [3]; 34.5 µM in [4]; 15.4 µM in assay [5]; 29.1 µM in assay [6]. The GI50 in assay [8] is 35.9 µM. Also, the TGI is 64.8 µM in [1]; 30.3 µM in [2]; 93.8 µM in [3]; over 100 µM in assay [4]; 51.5 µM in assay [5]; 78.6 µM in assay [6]. Also, in assay [8], the TGI is 94.3 µM.
As for `Nc1c2ccccc2nc2c(C(=O)Nc3ccc(S(N)(=O)=O)cc3)cccc12`, the TGI in assay [1] is over 100 µM; in assay [2], over 100 µM; in [3] it was over 100 µM; in assay [4], over 100 µM; in [5], 58.6 µM; in assay [6] it was over 100 µM. For the same compound, the TGI in [7] and in assay [8] was over 100 µM each time.
On to `CCCCn1c(=O)c(/C=C/C(=O)/C=C/c2cc3ccccc3n(CCCC)c2=O)cc2ccccc21`, for which the GI50 is 2.27 µM in assay [3]; 1.46 µM in assay [4]; 1.84 µM in assay [10]; 3.01 µM in assay [9]; 1.77 µM in assay [6]; 1.78 µM in assay [7]. The GI50 in assay [8] was 1.53 µM. In addition, the TGI in [3] was 4.08 µM; in [4], 3.42 µM; in [10] it was 3.37 µM; in assay [9], 13.5 µM; in assay [6], 3.28 µM; in assay [7], 3.21 µM. This compound also gave a TGI in assay [8] of 3.21 µM.
